The source of these data is paper PMC9965906, “Discovery and Development Strategies for SARS-CoV-2 NSP3 Macrodomain Inhibitors” (Pathogens, 2023).

Where “and” joins values, the source holds several entries; their conditions need not be identical. Equal entries are not always repeated. Where two headings read alike, the source gives them in different places.

The target of this test is SARS-CoV-2 NSP3 Mac1 (Severe acute respiratory syndrome coronavirus 2, UniProt P0DTD1). As to the kind of experiment: biochemical. Format: binding. Conditions: for NSP3 Mac1 inhibition at 50 µM (%) / inhibition at 50 µM: FDA-approved compound library primary screen, single shot; for Hill slope: confirmatory HTRF assays; for inhibition at 125 µM: read-out: Inhibition at top concentration of 125 µM (%). (In general: In TR-FRET formats the signal depends on donor and acceptor labels being close together.)

Where [1] appears, read: MIDAS compound library primary screen, 25 µM.
Setting [2] is: MIDAS hit compounds and analogues.
Where [3] appears, read: MIDAS hit compounds and analogues, top concentration 125 µM, 8-point 1:1 dilution, duplicate, read-out: IC50.
[4] abbreviates: MIDAS hit compounds and analogues, top concentration 125 µM, 8-point 1:1 dilution, duplicate.

`O=C(O)CCCC[C@@H]1SC[C@@H]2NC(=O)N[C@@H]21` [Biotin, reference compound]: the “NSP3 Mac1 inhibition at 50 µM (%)” value is 107% and the inhibition at 50 µM is 108%.

As to `N.N.O=C([O-])C1(C(=O)[O-])CCC1.[Pt+2]` [Carboplatin, reference compound], the “NSP3 Mac1 inhibition at 50 µM (%)” value is listed as 97.3%. Moreover, the “outcome of dose-response titration” value (FDA-approved hit compounds, top concentration 125 µM) is recorded as “strong assay interference”.

For the compound `CO/N=C(\C(=O)N[C@@H]1C(=O)N2C(C(=O)[O-])=C(C[N+]3(C)CCCC3)CS[C@H]12)c1csc(N)n1.Cl` [Cefepime hydrochloride, reference compound], the “NSP3 Mac1 inhibition at 50 µM (%)” value is reported as 42.1%.

Usually Hill slope stands for the slope factor of the fitted curve. A word on the IC50: it is the concentration that inhibits the measured activity by half. Take `CC(C)(O/N=C(\C(=O)N[C@@H]1C(=O)N2C(C(=O)[O-])=C(C[n+]3ccccc3)CS[C@H]12)c1csc(N)n1)C(=O)O` [Ceftazidime, reference compound]: the “NSP3 Mac1 inhibition at 50 µM (%)” value came out at 108% and the inhibition at 50 µM was 108%. Also, the Hill slope (FDA-approved hit compounds) is listed as 1.38. Besides, the IC50 (IC50) is 37.1 µM and 37 µM.

Consider `Nc1nc(/C(=C/CC(=O)O)C(=O)N[C@@H]2C(=O)N3C(C(=O)O)=CCS[C@H]23)cs1` [Ceftibuten, reference compound], for which the inhibition at 50 µM came to 71.6%.

As for `CC(=O)OCC1=C(C(=O)O)N2C(=O)[C@@H](NC(=O)CCC[C@@H](N)C(=O)O)[C@H]2SC1` [Cephalosporin C sodium, reference compound], the inhibition at 50 µM worked out at 89.8%.

Regarding `COCCNC(=O)c1ccc(-c2ccnc3c2ccn3C)o1` [Compound 1, COCCNC(=O)c1ccc(o1)-c1ccnc2n(ccc12)C], the inhibition at 25 µM under setting [1] was found to be 73%. For the same compound, the “NSP3 Mac1 inhibition at 25 µM (%)” value (MIDAS compound library primary screen, 25 µM, listed as ARUK4007189-001-001, 25 µM) worked out at 73.1%.

With `O=c1c2ccccc2[se]n1-c1ccccc1` [Ebselen, reference compound], the “NSP3 Mac1 inhibition at 50 µM (%)” value is reported as 107% and the inhibition at 50 µM turned out to be 108%. This compound displayed a Hill slope (FDA-approved hit compounds) of 4.94.

Take `CCOc1ccc2nc3cc(N)ccc3c(N)c2c1` [Ethacridine lactate, reference compound]: the inhibition at 50 µM came out at 49.3%.

For the compound `CCCCCCCC/C=C\CCCCCCCC(=O)O.NCCO` [Ethanolamine oleate, reference compound], the “NSP3 Mac1 inhibition at 50 µM (%)” value came to 56.1%.

With `Oc1c(Cl)cc(Cl)c(Cl)c1Cc1c(O)c(Cl)cc(Cl)c1Cl` [Hexachlorophene, reference compound], the inhibition at 50 µM came out at 85.5%.

Turning to `Nc1c(C(=O)NC2CC2)sc2nc(-c3ccccn3)ccc12` [IAL-MD0017, O=C(C1=C(N)C2=CC=C(C3=NC=CC=C3)N=C2S1)NC4CC4], the inhibition at 25 µM under setting [1] was determined as 58.7%. For the same compound, the inhibition at 125 µM under setting [2] is 79.6%. Moreover, the IC50 under setting [3] came out at 12.6 µM.

In the case of `CC(C)n1ncc2c(C(=O)NCc3cccs3)cc(-c3ccccc3)nc21` [IAL-MD0018, CC(C)N1N=CC=2C(=CC(=NC12)C=3C=CC=CC3)C(=O)NCC4=CC=CS4], the “Inhibition at top concentration of 125 µM (%)” value (“Inhibition … of 125 µM (%)” for short) under setting [2] is reported as “Not measurable”. Further, the “IC50 in µM” value under setting [4] is “Not measurable”.

As for `CONC(=O)c1cc(-c2ccc(OC)cc2)nc2ccccc12` [IAL-MD0024, CONC(=O)C=1C=C(N=C2C=CC=CC12)C=3C=CC(OC)=CC3], the inhibition at 125 µM under setting [2] amounted to 60.3%. In addition, under setting [3], the IC50 is 68 µM.

Consider `CCn1ncc2c(C(=O)Nc3cccc(NC(C)=O)c3)cc(-c3ccccc3)nc21` [IAL-MD0025, CCN1N=CC=2C(=CC(=NC12)C=3C=CC=CC3)C(=O)NC=4C=CC=C(NC(=O)C)C4], for which the “Inhibition … of 125 µM (%)” value under setting [2] is “Not measurable”. Further, the “IC50 in µM” value under setting [4] is listed as “Not measurable”.

For `CCn1ncc2c(C(=O)Nc3ncc(C)s3)cc(-c3cccs3)nc21` [IAL-MD0026, CCN1N=CC=2C(=CC(=NC12)C3=CC=CS3)C(=O)NC4=NC=C(C)S4], the inhibition at 125 µM under setting [2] was determined as 11.1%. Also, the “IC50 in µM” value under setting [4] was “Not measurable”.

Regarding `COc1ccc(-c2cc(C(=O)O)c3c(C)cc(C)cc3n2)cc1` [IAL-MD0029, COC=1C=CC(=CC1)C=2C=C(C(=O)O)C=3C(C)=CC(C)=CC3N2], the inhibition at 125 µM under setting [2] was 61.2%. In addition, the IC50 under setting [3] was 76 µM and 75.9 µM.

Consider `COc1ccc(-c2cc(C(=O)O)c3ccc(OC)cc3n2)cc1` [IAL-MD0030, COC=1C=CC(=CC1)C=2C=C(C(=O)O)C=3C=CC(OC)=CC3N2], for which, under setting [2], the inhibition at 125 µM came out at 44.7%. For the same compound, under setting [4], the “IC50 in µM” value was “Not measurable”.

With `COc1ccc(-c2cc(C(=O)O)c3cc(NC(C)=O)ccc3n2)cc1` [IAL-MD0031, COC=1C=CC(=CC1)C=2C=C(C(=O)O)C=3C=C(NC(=O)C)C=CC3N2], under setting [1], the inhibition at 25 µM was found to be 48%. For the same compound, under setting [2], the inhibition at 125 µM came out at 81.3%. In addition, the IC50 under setting [3] is 19 µM and 19.3 µM.

In the case of `CC(=O)Nc1cccc(NC(=O)c2cc(-c3cccs3)nc3c2cnn3C(C)C)c1` [IAL-MD0032, CC(C)N1N=CC=2C(=CC(=NC12)C3=CC=CS3)C(=O)NC=4C=CC=C(NC(=O)C)C4], the inhibition at 125 µM under setting [2] is 20.3%. Moreover, under setting [4], the “IC50 in µM” value is “Not measurable”.

`COc1cccc(NC(=O)c2cc(-c3cccs3)nc3c2cnn3C(C)C)c1` [IAL-MD0033, COC=1C=CC=C(NC(=O)C=2C=C(N=C3N(N=CC23)C(C)C)C4=CC=CS4)C1]: the inhibition at 125 µM under setting [2] stood at 12.1%. Besides, the “IC50 in µM” value under setting [4] is on record as “Not measurable”.

With `COc1ccc(-c2cc(C(=O)Nc3cccc(OCC(N)=O)c3)c3ccccc3n2)cc1` [IAL-MD0034, COC=1C=CC(=CC1)C=2C=C(C(=O)NC=3C=CC=C(OCC(=O)N)C3)C=4C=CC=CC4N2], the inhibition at 125 µM under setting [2] stood at 8.9%. Under setting [4], the “IC50 in µM” value was “Not measurable”.

As to `CCC(C)NC(=O)c1cc(-c2ccc(OC)cc2)nc2ccccc12` (stereo not drawn) [IAL-MD0035, CCC(C)NC(=O)C=1C=C(N=C2C=CC=CC12)C=3C=CC(OC)=CC3], the inhibition at 125 µM under setting [2] came out at 6.8%. In addition, the “IC50 in µM” value under setting [4] is “Not measurable”.

`COc1ccc(NC(=O)c2cc(-c3ccc(C)cc3)nc3onc(C)c23)cc1` [IAL-MD0037, COC=1C=CC(NC(=O)C=2C=C(N=C3ON=C(C)C23)C=4C=CC(C)=CC4)=CC1]: the inhibition at 125 µM under setting [2] stood at 9.3%. In addition, the “IC50 in µM” value under setting [4] is given as “Not measurable”.

On to `CCn1ncc2c(C(=O)Nc3cc(Cl)ccc3OC)cc(-c3cccs3)nc21` [IAL-MD0038, CCN1N=CC=2C(=CC(=NC12)C3=CC=CS3)C(=O)NC=4C=C(Cl)C=CC4OC], for which the inhibition at 125 µM under setting [2] is 50.5%. The “IC50 in µM” value under setting [4] is “Not measurable”.

With `CCn1ncc2c(C(=O)N3CCNC(=O)C3)cc(-c3cccs3)nc21` [IAL-MD0040, CCN1N=CC=2C(=CC(=NC12)C3=CC=CS3)C(=O)N4CCNC(=O)C4], under setting [1], the inhibition at 25 µM was 51%. The inhibition at 125 µM under setting [2] was 81%. For the same compound, under setting [3], the IC50 is 21 µM and 20.6 µM.

As for `CCn1ncc2c(C(=O)N(C)Cc3ccccc3C)cc(-c3cccs3)nc21` [IAL-MD0042, CCN1N=CC=2C(=CC(=NC12)C3=CC=CS3)C(=O)N(C)CC=4C=CC=CC4C], the inhibition at 125 µM under setting [2] came to 20.9%. Besides, under setting [4], the “IC50 in µM” value was “Not measurable”.

As to `CC(C)n1ncc2c(C(=O)N3CCNC(=O)C3)cc(-c3ccc4c(c3)OCCO4)nc21` [IAL-MD0044, CC(C)N1N=CC=2C(=CC(=NC12)C=3C=CC=4OCCOC4C3)C(=O)N5CCNC(=O)C5], the inhibition at 125 µM under setting [2] is 30.2%. Under setting [4], the “IC50 in µM” value is “Not measurable”.

Regarding `Cc1nn(C)c2nc(-c3ccccc3)cc(C(=O)N3CCN(C(=O)C4CC4)CC3)c12` [IAL-MD0045, CC1=NN(C)C=2N=C(C=C(C(=O)N3CCN(CC3)C(=O)C4CC4)C12)C=5C=CC=CC5], under setting [2], the inhibition at 125 µM worked out at 47.5%. Moreover, the “IC50 in µM” value under setting [4] is “Not measurable”.

For the compound `Cc1nn(C)c2nc(-c3cccs3)cc(C(=O)NCc3ccccn3)c12` [IAL-MD0048, CC1=NN(C)C=2N=C(C=C(C(=O)NCC=3C=CC=CN3)C12)C4=CC=CS4], under setting [2], the inhibition at 125 µM is 15.8%. Besides, the “IC50 in µM” value under setting [4] was “Not measurable”.

Consider `CC(C)n1ncc2c(C(=O)N3CC(=O)Nc4ccccc43)cc(-c3cccs3)nc21` [IAL-MD0049, CC(C)N1N=CC=2C(=CC(=NC12)C3=CC=CS3)C(=O)N4CC(=O)NC=5C=CC=CC45], for which the inhibition at 125 µM under setting [2] stood at 14.3%. Further, the “IC50 in µM” value under setting [4] was “Not measurable”.

Consider `CCn1ncc2c(C(=O)N3CCOCC3)cc(-c3ccccc3)nc21` [IAL-MD0050, CCN1N=CC=2C(=CC(=NC12)C=3C=CC=CC3)C(=O)N4CCOCC4], for which the “Inhibition … of 125 µM (%)” value under setting [2] was “Not measurable”. Also, the “IC50 in µM” value under setting [4] is “Not measurable”.

Regarding `Cc1ccc(-c2cc(C(=O)N3CCOCC3)c3cnn(C(C)C)c3n2)s1` [IAL-MD0051, CC(C)N1N=CC=2C(=CC(=NC12)C3=CC=C(C)S3)C(=O)N4CCOCC4], under setting [2], the inhibition at 125 µM stood at 59.8%. Moreover, the IC50 under setting [3] came out at 12.6 µM. In addition, the “assay effects in dose-response titration” value (MIDAS hits and analogues, higher compound concentrations) was “secondary assay effects at higher concentrations”.

Regarding `CC(=O)N1CCN(C(=O)c2cc(-c3cccs3)nc3c2c(C)nn3C)CC1` [IAL-MD0054, CC(=O)N1CCN(CC1)C(=O)C=2C=C(N=C3N(C)N=C(C)C23)C4=CC=CS4], under setting [2], the inhibition at 125 µM was determined as 41.5%. Under setting [4], the “IC50 in µM” value was “Not measurable”.

As for `CC(C)n1ncc2c(C(=O)Nc3ccncc3)cc(-c3cccs3)nc21` [IAL-MD0055, CC(C)N1N=CC=2C(=CC(=NC12)C3=CC=CS3)C(=O)NC=4C=CN=CC4], the inhibition at 125 µM under setting [2] came out at 19.4%. Also, under setting [4], the “IC50 in µM” value is “Not measurable”.

With `CCn1ncc2c(C(=O)N3CCC(C(O)c4ccccc4)CC3)cc(-c3cccs3)nc21` (stereo not drawn) [IAL-MD0056, CCN1N=CC=2C(=CC(=NC12)C3=CC=CS3)C(=O)N4CCC(CC4)C(O)C=5C=CC=CC5], the inhibition at 125 µM under setting [2] was found to be 7%. Besides, under setting [4], the “IC50 in µM” value was “Not measurable”.

`COc1ccc(-c2cc(C(=O)Nc3ccc(S(C)(=O)=O)cc3)c3ccccc3n2)cc1` [IAL-MD0058, COC=1C=CC(=CC1)C=2C=C(C(=O)NC=3C=CC(=CC3)S(=O)(=O)C)C=4C=CC=CC4N2]: the inhibition at 125 µM under setting [2] amounted to 18.7%. Further, the “IC50 in µM” value under setting [4] is “Not measurable”.
